From patent publication US12157730B2, “Heteroaryl derivative, method for producing same, and pharmaceutical composition comprising same as effective component” (VORONOI INC., priority 2019, dated 2024)

Target: T1, Ba/F3 cell EGFR Exon20 ins NPH (Homo sapiens, UniProt P00533, INS773NPH)
T1 construct: expressed in transfected cells; host or cells: Ba/F3
Assay: Ba/F3 cell proliferation suppression, EGFR Exon20 ins NPH
Format: cell-based
Conditions: GI50 class; Ba/F3 cell line with NPH inserted at Exon20 of EGFR; 72 hours
Procedure, shortened: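 Cells (3000–5000/well) plated 24 h before compound, 12-point 3-fold dilutions at 0.3 nM to 50 um final; Ba/F3 lines grown with 5 ng/ml IL-3. Viability by CellTiter-Glo luminescence after 72 h, growth ratio vs control, GI50 from curves; triplicate.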

Molecule	Ba/F3 (NPH) Activity
C=CC(=O)Nc1cc(Nc2cc(N3OCC[C@@H]3c3ccc(F)cc3F)ncn2)c(OC)cc1N1CCN(C(C)C)CC1 [compound 346, N-(5-((6-((R)-3-(2,4-difluorophenyl)isoxazolidine-2-yl)pyrimidine-4-yl)amino)-2-(4-isopropylpiperazine-1-yl)-4-methoxyphenyl) acrylamide]	A (GI50 < 50 nM)
C=CC(=O)Nc1cc(Nc2cc(N3OCC[C@@H]3c3cccc(OC)c3)ncn2)c(OC)cc1N1CC[C@H](N2CCOCC2)C1 [compound 778, N-(4-methoxy-5-((6-((R)-3-(3-methoxyphenyl)isoxazolidine-2-yl)pyrimidine-4-yl)amino)-2-((S)-3-morpholinopyrolidine-1-yl)phenyl)acrylamide]	B (50 nM ≤ GI50 < 500 nM)
C=CC(=O)Nc1cc(Nc2cc(N3OCC[C@@H]3Cc3cccnc3)ncn2)c(OC)cc1N1CCC(N2CCN(C3CC3)[C@@H](C)C2)CC1 [compound 1057, N-(2-(4-((S)-4-cyclopropyl-3-methylpiperazine-1-yl)piperidine-1-yl)-4-methoxy-5-((6-((S)-3-(pyridine-3-ylmethyl)isoxazolidine-2-yl)pyrimidine-4-yl)amino)phenyl)acrylamide]	B (50 nM ≤ GI50 < 500 nM)
C=CC(=O)Nc1cc(Nc2cc(N3OCC[C@@H]3c3cccc(Cl)c3Cl)ncn2)c(OC)cc1N1C[C@H]2C[C@@H]1CO2 [compound 523, N-(2-((1R,4R)-2-oxa-5-azabicyclo[2.2.1]heptane-5-yl)-5-((6-((R)-3-(2,3-dichlorophenyl)isoxazolidine-2-yl)pyrimidine-4-yl)amino)-4-methoxyphenyl) acrylamide]	A (GI50 < 50 nM)
C=C(F)C(=O)Nc1cc(Nc2cc(N3OCC[C@@H]3c3cc(F)cc(F)c3)ncn2)c(OC)cc1N1CCC(N2CCN(C3CC3)CC2)CC1 [Example 120, N-(2-(4-(4-cyclopropylpiperazine-1-yl)piperidine-1-yl)-5-((6-((R)-3-(3,5-difluorophenyl)isoxazolidine-2-yl)pyrimidine-4-yl)amino)-4-methoxyphenyl)-2-fluoroacrylamide]	C (500 nM ≤ GI50 < 5000 nM)
C=CC(=O)Nc1cc(Nc2cc(N3OCC[C@@H]3c3ccc(F)cc3F)ncn2)c(OC)cc1N1CCN(C)CC1 [compound 326, N-(5-((6-((R)-3-(2,4-difluorophenyl)isoxazolidine-2-yl)pyrimidine-4-yl)amino)-4-methoxy-2-(4-methylpiperazine-1-yl)phenyl)acrylamide]	A (GI50 < 50 nM)
C=CC(=O)Nc1cc(Nc2cc(N3OCC[C@@H]3c3cccc(C#N)c3)ncn2)c(OC)cc1N1CCC(N2CCOC[C@H]2C)CC1 [compound 388, N-(5-((6-((R)-3-(3-cyanophenyl)isoxazolidine-2-yl)pyrimidine-4-yl)amino)-4-methoxy-2-(4-((R)-3-methylmorpholino)piperidine-1-yl)phenyl) acrylamide]	A (GI50 < 50 nM)
C=CC(=O)Nc1cc(Nc2cc(N3OCC[C@@H]3c3cc(F)cc(F)c3)ncn2)c(OC)cc1N1CCC(N2CCOC[C@H]2C)CC1 [compound 842, N-(5-((6-((R)-3-(3,5-difluorophenyl)isoxazolidine-2-yl)pyrimidine-4-yl)amino)-4-methoxy-2-(4-((R)-3-methylmorpholino)piperidine-1-yl)phenyl) acrylamide]	A (GI50 < 50 nM)
C=CC(=O)Nc1cc(Nc2cc(N3OCC[C@@H]3c3cc(F)cc(F)c3)ncn2)c(OC)cc1N1CCC(N2CCC(F)(F)CC2)CC1 [compound 718, N-(2-(4,4-difluoro-[1,4'-bipiperidine]-1'-yl)-5-((6-((R)-3-(3,5-difluorophenyl)isoxazolidine-2-yl)pyrimidine-4-yl)amino)-4-methoxyphenyl) acrylamide]	A (GI50 < 50 nM)
C=CC(=O)Nc1cc(Nc2cc(N3OCC[C@@H]3c3cc(F)cc(F)c3)ncn2)c(OCC)cc1N1CCC(N2CCN(C3CC3)CC2)CC1 [Example 116, N-(2-(4-(4-cyclopropylpiperazine-1-yl)piperidine-1-yl)-5-((6-((R)-3-(3,5-difluorophenyl)isoxazolidine-2-yl)pyrimidine-4-yl)amino)-4-ethoxyphenyl) acrylamide]	C (500 nM ≤ GI50 < 5000 nM)
C=CC(=O)Nc1cc(Nc2cc(N3OCC[C@@H]3c3cccc(Cl)c3F)ncn2)c(OC)cc1N1CCC(N2CC[C@@H](N(C)C)C2)CC1 [compound 914, N-(5-((6-((R)-3-(3-chloro-2-fluorophenyl)isoxazolidine-2-yl)pyrimidine-4-yl)amino)-2-(4-((R)-3-(dimethylamino)pyrolidine-1-yl)piperidine-1-yl)-4-methoxyphenyl) acrylamide]	A (GI50 < 50 nM)
C=CC(=O)Nc1cc(Nc2cc(N3OCC[C@@H]3c3ccc(Cl)c(Cl)c3)ncn2)c(OC)cc1N1C[C@H]2C[C@@H]1CO2 [compound 671, N-(2-((1R,4R)-2-oxa-5-azabicyclo[2.2.1]heptane-5-yl)-5-((6-((R)-3-(3,4-dichlorophenyl)isoxazolidine-2-yl)pyrimidine-4-yl)amino)-4-methoxyphenyl) acrylamide]	A (GI50 < 50 nM)
C=CC(=O)Nc1cc(Nc2cc(N3OCC[C@@H]3c3cccc(C#N)c3)ncn2)c(OC)cc1N1CCC(N2CCN(C3CCC3)CC2)CC1 [Example 183, N-(5-((6-((R)-3-(3-cyanophenyl)isoxazolidine-2-yl)pyrimidine-4-yl)amino)-2-(4-(4-cyclobutylpiperazine-1-yl)piperidine-1-yl)-4-methoxyphenyl) acrylamide]	A (GI50 < 50 nM)
C=CC(=O)Nc1cc(Nc2cc(N3OCC[C@@H]3c3cc(F)ccc3F)ncn2)c(OC)cc1N1CCC(N2CC3CC2CN3C)CC1 (stereo partly drawn) [compound 877, N-(5-((6-((R)-3-(2,5-difluorophenyl)isoxazolidine-2-yl)pyrimidine-4-yl)amino)-4-methoxy-2-(4-(5-methyl-2,5-diazabicyclo [2.2.1]heptane-2-yl)piperidine-1-yl)phenyl)acrylamide]	A (GI50 < 50 nM)
C=CC(=O)Nc1cc(Nc2cc(N3OCC[C@@H]3c3cccc(Cl)c3Cl)ncn2)c(OC)cc1N1CCC(N2CCN(C3CCCC3)CC2)CC1 [Example 206, N-(2-(4-(4-cyclopentylpiperazine-1-yl)piperidine-1-yl)-5-((6-((R)-3-(2,3-dichlorophenyl)isoxazolidine-2-yl)pyrimidine-4-yl)amino)-4-methoxyphenyl) acrylamide]	B (50 nM ≤ GI50 < 500 nM)
C#Cc1cccc([C@H]2CCON2c2cc(Nc3cc(NC(=O)C=C)c(N4CCN(C5CC5)CC4)cc3OC)ncn2)c1 [compound 654, N-(2-(4-cyclopropylpiperazine-1-yl)-5-((6-((R)-3-(3-ethynylphenyl)isoxazolidine-2-yl)pyrimidine-4-yl)amino)-4-methoxyphenyl) acrylamide]	B (50 nM ≤ GI50 < 500 nM)
C=CC(=O)Nc1cc(Nc2cc(N3OCC[C@@H]3c3ccc(Cl)cc3F)ncn2)c(OC)cc1N1CC[C@H](N2CCOCC2)C1 [compound 407, N-(5-((6-((R)-3-(4-chloro-2-fluorophenyl)isoxazolidine-2-yl)pyrimidine-4-yl)amino)-4-methoxy-2-((S)-3-morpholinopyrolidine-1-yl)phenyl)acrylamide]	B (50 nM ≤ GI50 < 500 nM)
C=CC(=O)Nc1cc(Nc2cc(N3OCC[C@@H]3c3ccc(F)c(F)c3)ncn2)c(OC)cc1N(C)CCN(C)C [compound 457, N-(5-((6-((R)-3-(3,4-difluorophenyl)isoxazolidine-2-yl)pyrimidine-4-yl)amino)-2-((2-(dimethylamino)ethyl)(methyl)amino)-4-methoxyphenyl) acrylamide]	A (GI50 < 50 nM)
C=CC(=O)Nc1cc(Nc2cc(N3OCC[C@@H]3Cc3ccc(C(F)(F)F)cc3)ncn2)c(OC)cc1N1CCN(C2CC2)CC1 [compound 1049, N-(2-(4-cyclopropylpiperazine-1-yl)-4-methoxy-5-((6-((S)-3-(4-(trifluoromethyl)benzyl)isoxazolidine-2-yl)pyrimidine-4-yl)amino)phenyl) acrylamide]	C (500 nM ≤ GI50 < 5000 nM)
C=CCN1CCN(C2CCN(c3cc(OC)c(Nc4cc(N5OCC[C@@H]5c5ccc(Cl)cc5F)ncn4)cc3NC(=O)C=C)CC2)CC1 [Example 211, N-(2-(4-(4-allylpiperazine-1-yl)piperidine-1-yl)-5-((6-((R)-3-(4-chloro-2-fluorophenyl)isoxazolidine-2-yl)pyrimidine-4-yl)amino)-4-methoxyphenyl) acrylamide]	A (GI50 < 50 nM)
N-(2-(4-(4- (cyclopropylmethyl) piperazine-1-yl) piperidine-1-yl)-5-((6- ((S)-3-(2,6)- difluorophenyl) isoxazolidine-2-yl) pyrimidine-4-yl)amino)- 4-methoxyphenyl) acrylamide [Example 95]	C (500 nM ≤ GI50 < 5000 nM)
C=CC(=O)Nc1cc(Nc2cc(N3OCC[C@@H]3c3c(F)ccc(F)c3F)ncn2)c(OC)cc1N1CCC(N2CCN(C3CC3)CC2)CC1 [Example 169, N-(2-(4-(4-cyclopropylpiperazine-1-yl)piperidine-1-yl)-4-methoxy-5-((6-((R)-3-(2,3,6-trifluorophenyl)isoxazolidine-yl)pyrimidine-4-yl)amino)phenyl)acrylamide]	A (GI50 < 50 nM)
C=CC(=O)Nc1cc(Nc2cc(N3OCC[C@@H]3c3cc(F)cc(F)c3)ncn2)c(OC)cc1N1CC(N2CCN(C3CC3)CC2)C1 [compound 588, N-(2-(3-(4-cyclopropylpiperazine-1-yl)azetidine-1-yl)-5-((6-((R)-3-(3,5-difluorophenyl)isoxazolidine-2-yl)pyrimidine-4-yl)amino)-4-methoxyphenyl) acrylamide]	B (50 nM ≤ GI50 < 500 nM)
